Activity calls are given as the source filed them. The rule behind the calls is not given here. Bounds are passed on as bounds.

Chain of Chaperone protein DnaK (Escherichia coli (strain K12)) (P0A6Y8 whole entry, looked up): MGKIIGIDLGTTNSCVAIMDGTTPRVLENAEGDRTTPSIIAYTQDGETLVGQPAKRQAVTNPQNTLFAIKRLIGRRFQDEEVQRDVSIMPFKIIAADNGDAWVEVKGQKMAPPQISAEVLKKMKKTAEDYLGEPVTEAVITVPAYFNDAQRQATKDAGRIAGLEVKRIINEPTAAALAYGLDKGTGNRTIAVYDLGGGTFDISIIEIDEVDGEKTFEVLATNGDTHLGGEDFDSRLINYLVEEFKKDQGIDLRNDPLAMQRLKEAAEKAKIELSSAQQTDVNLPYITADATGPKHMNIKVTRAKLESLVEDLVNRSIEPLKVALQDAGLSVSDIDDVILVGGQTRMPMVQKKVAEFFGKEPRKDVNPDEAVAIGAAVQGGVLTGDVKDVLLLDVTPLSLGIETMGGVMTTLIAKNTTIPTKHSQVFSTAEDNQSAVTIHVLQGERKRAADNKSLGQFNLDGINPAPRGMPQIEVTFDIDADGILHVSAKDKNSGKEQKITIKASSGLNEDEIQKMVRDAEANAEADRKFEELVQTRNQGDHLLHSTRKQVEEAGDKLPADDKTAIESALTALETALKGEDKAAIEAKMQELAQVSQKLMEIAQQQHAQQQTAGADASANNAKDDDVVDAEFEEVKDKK

The test concerns the target Chaperone protein DnaK (Escherichia coli (strain K12)) (UniProt P0A6Y8). In words: E. coli DnaK SBD ligand binding – biophysical, NMR, chaperone (AID 1033). Conditions: Purified DnaK SBD.
By Kd is commonly meant the free concentration of one partner at which half of the binding sites on the other are occupied at equilibrium, for simple one-to-one binding. With `CC(=O)Nc1ccc(Cl)c(C(N)=O)c1`, the Kd was > 4 mM (inactive).
For `Cc1nc2nc(COc3ccccc3)nn2c(C)c1Cl`, the Kd is > 4 mM (inactive).
The value for `CC(C)CCCC(C)C1CCC2C3CC(=O)[C@H]4C[C@@H](O)CC[C@]4(C)C3CC[C@]12C` (some centres not stated) was > 4 mM (inactive); that for `COCC(=O)NC1CC(C)(C)NC(C)(C)C1` was > 4 mM (inactive).
The value for `CC(=O)NC(=S)Nc1ccccc1C` was > 4 mM (inactive); that for `COc1cc2cc[n+]3cc4c(OC)c(OC)ccc4cc3c2cc1OC` was > 4 mM (inactive); that for `CCOc1ccc(C)cc1S(=O)(=O)n1ccnc1` was > 4 mM (inactive).
The figure for `CC1(C)Cc2cccc(CO)c2O1` is > 4 mM (inactive); for `CSc1nc(=O)[nH]c2c1CCC2` it is > 4 mM (inactive).
Turning to `Cn1c(=O)c2c(ncn2CCNC2=NCCC2)n(C)c1=O`, the Kd was > 4 mM (inactive).
The value for `CCNC(=S)N1CCC(C(N)=O)CC1` was > 4 mM (inactive); that for `Cn1cnc2c1c(=O)[nH]c(=O)n2C` was > 4 mM (inactive).
The value for `O=C1CC(=O)N(c2ccccc2)c2ccccc21` was > 4 mM (inactive); that for `C=C[C@@H](C1=CC(=O)C(OC)=C(OC)C1=O)c1ccccc1` was > 4 mM (inactive).
The figure for `COC(=O)c1cccnc1Oc1ccccc1` is > 4 mM (inactive); for `COc1cccc(NC(=O)c2cccs2)c1` it is > 4 mM (inactive).
Take `O=C1CCCN1C(=O)c1ccc(F)cc1`: the Kd was > 4 mM (inactive).
The value for `O=C(Nc1cnccn1)c1cccs1` was > 4 mM (inactive).
The figure for `O=C(O)c1scc2c1CCCC2` is > 4 mM (inactive); for `O=C1CSC2(CN3CCC2CC3)N1` (configuration not stated) it is > 4 mM (inactive).
The figure for `Cn1c(O)c(C2=NC(=S)NC2=O)c2ccccc21` is > 4 mM (inactive); for `NC(=O)Cn1nc2c3c(cccc3c1=O)-c1ccccc1-2` it is > 4 mM (inactive); for `CCOC(=O)c1c(C)cc(O)cc1O` it is > 4 mM (inactive).
For the compound `O=C(NCc1cccs1)c1ccc2c(c1)OCCO2`, the Kd was > 4 mM (inactive).
The figure for `COc1c(CC=C(C)C)c2c(c3oc(=O)c(-c4ccc(O)cc4)c(O)c13)C=CC(C)(C)O2` is > 4 mM (inactive).
With `CN(c1ccccc1C(=O)N1CCOCC1)S(C)(=O)=O`, the Kd was > 4 mM (inactive).
`CC(=O)Nc1cccc(N2C(=O)CCC2=O)c1`: the Kd was > 4 mM (inactive).
The figure for `O=C(Nc1ccc(N2CCOCC2)cc1)c1cnsn1` is > 4 mM (inactive); for `Cc1oc(-c2ccccc2)nc1CCO` it is > 4 mM (inactive); for `N=C1/C(=C\c2ccccc2)C(=O)N=C2SC=NN12` it is > 4 mM (inactive).
The figure for `O=C(Nc1cccnc1)N1CCOCC1` is > 4 mM (inactive).
Consider `Cc1cc(O)c(C)c(O)c1C(=O)O`, for which the Kd was > 4 mM (inactive).
Take `CN1CCN(CC(=O)Nc2ccccc2)CC1`: the Kd was > 4 mM (inactive).
The figure for `Nc1nc2ccccc2n1CCN1CCCC1` is > 4 mM (inactive); for `O=C(O)Cn1nnnc1-c1ccc(F)cc1` it is > 4 mM (inactive).
For `CON(C)C(=O)Nc1ccc(Cl)cc1`, the Kd was > 4 mM (inactive).
On to `CC(C)(C)c1cc(N)n[nH]1`, for which the Kd is > 4 mM (inactive).
The value for `O=C(O)CN1C(=O)c2ccc(C(=O)O)cc2C1=O` was > 4 mM (inactive); that for `CN(C)C(=O)CSc1nc2ccccc2c(=O)[nH]1` was > 4 mM (inactive).
The figure for `CC(C)Nc1ncnc2c1nnn2C` is > 4 mM (inactive); for `Cc1cccc(C)c1NC(=O)/C=C/C(=O)O` it is > 4 mM (inactive).
The value for `O=C(O)CNCC(O)Cn1c2ccccc2c2ccccc21` (configuration not stated) was > 4 mM (inactive); that for `CN1CCN(C(=S)NC(=O)c2ccn(C)n2)CC1` was > 4 mM (inactive).
In the case of `N#CCSc1nc2ccccc2c(=O)n1-c1ccccc1`, the Kd is > 4 mM (inactive).
The value for `COc1ccccc1NC(=O)C1CCCCC1` was > 4 mM (inactive); that for `O=c1[nH]c2sc3c(c2c2ncnn12)CCCC3` was > 4 mM (inactive).
The value for `COC(=O)c1ccc2nc[nH]c2c1` was > 4 mM (inactive); that for `O=S(=O)(Cc1ccc(Cl)cc1)N1CCCC1` was > 4 mM (inactive).
The value for `CSc1nc2nccc(N)n2n1` was > 4 mM (inactive); that for `COC(=O)c1ccc2ncccc2c1` was > 4 mM (inactive).
With `CNC(C)[C@H](O)c1ccccc1` (some centres not stated), the Kd is > 4 mM (inactive).
The value for `CN(C)C(=O)Nc1ccc2c(c1)nnn2C` was > 4 mM (inactive).
The figure for `CCOc1ccc2nc(NS(C)(=O)=O)sc2c1` is > 4 mM (inactive); for `CCOC(=O)c1c(C)cc(O)c(C)c1O` it is > 4 mM (inactive).
The figure for `Cc1[nH]c(=O)[nH]c(=O)c1N1CCOCC1` is > 4 mM (inactive); for `NC(=O)c1cccnc1Oc1ccccc1` it is > 4 mM (inactive); for `COc1cc([C@@H]2c3cc4c(c(O)c3C[C@H]3COC(=O)[C@@H]32)OCO4)cc(OC)c1OC` it is > 4 mM (inactive).
In the case of `CP(C)(=O)CCC(=O)O`, the Kd was > 4 mM (inactive).
The value for `CC(=O)OC/C=C(\C)CC/C=C(\C)CC/C=C(\C)CC/C=C(\C)CC/C=C(\C)CC/C=C(\C)CC/C=C(\C)CC/C=C(\C)CCC=C(C)C` was > 4 mM (inactive); that for `CC(=O)OC1CCC23C(=O)OC45CCC(C6=CC(=O)OC6)C4(C)CCC2C5CCC3(O)C1` (configuration not stated) was > 4 mM (inactive).
The value for `O=C(O)CS(=O)(=O)c1ccccc1` was > 4 mM (inactive); that for `CC(=O)Nc1ccc(CN2CCOCC2)cc1` was > 4 mM (inactive).
The figure for `Cc1nnc2sc(-c3csc4c3CCCC4)nn12` is > 4 mM (inactive).
As for `O=C(Nc1nncs1)C1(c2ccccc2)CCCC1`, the Kd is > 4 mM (inactive).
In the case of `Cc1onc(-c2ccccc2)c1C(=O)Nc1ccncc1`, the Kd was > 4 mM (inactive).
The figure for `COc1cc([C@@H]2c3cc4c(cc3[C@H](O)[C@H]3COC(=O)[C@H]23)OCO4)cc(OC)c1OC` is > 4 mM (inactive); for `COc1ccc(/C=C2\NC(=S)N(C)C2=O)cc1O` it is > 4 mM (inactive).
As for `Cc1sc2nc3n(c(=O)c2c1C)CCCS3`, the Kd was > 4 mM (inactive).
The figure for `O=C(Nc1ccc2c(c1)OCCO2)c1c(F)cccc1F` is > 4 mM (inactive).
The figure for `COC(=O)c1scc(C)c1N` is > 4 mM (inactive).
The figure for `O=C1CCc2ccccc2CN1` is > 4 mM (inactive); for `c1ccc(-c2nc3ccccc3nc2-c2ccccn2)nc1` it is > 4 mM (inactive); for `Clc1ccccc1OCc1nc(-c2ccncc2)no1` it is > 4 mM (inactive).
In the case of `CN1CCN(C2CCN(Cc3ccccc3)CC2)CC1`, the Kd was > 4 mM (inactive).
The figure for `OCC1CCCN2CCCCC12` (configuration not stated) is > 4 mM (inactive); for `O=C1NC(=S)N/C1=C/c1ccsc1` it is > 4 mM (inactive).
The value for `COc1ccc(O)c(-c2cn[nH]c2-c2cccs2)c1` was > 4 mM (inactive); that for `COc1cc(-c2coc3cc(O[C@@H]4O[C@H](CO)[C@@H](O)[C@H](O)[C@H]4O)c(OC)c(O)c3c2=O)cc(O)c1OC` was > 4 mM (inactive); that for `O=C(NCO)c1ccc([N+](=O)[O-])cc1` was > 4 mM (inactive).
The figure for `CC(C)=CCC/C(C)=C/CC/C(C)=C/CC/C(C)=C/CC/C(C)=C/CC/C(C)=C/CC/C(C)=C/CC/C(C)=C/CC/C(C)=C/CO` is > 4 mM (inactive); for `COC(=O)C[C@@H]1C2(C)C(=O)[C@@H](CC3=C4CC(O)O[C@@H](c5ccoc5)[C@]4(C)CCC32)[C@H](O)C1(C)C` (some centres not stated) it is > 4 mM (inactive).
Take `CN(C)S(=O)(=O)Nc1ccc(Br)cc1F`: the Kd was > 4 mM (inactive).
The figure for `CC1(C)C(=O)C=C[C@@]2(C)C1=C(O)C(=O)[C@]1(C)C2CC[C@@]2(C)[C@H](c3ccoc3)C[C@H]3O[C@]321` (some centres not stated) is > 4 mM (inactive); for `Nc1nc2[nH]c(=O)c(=O)[nH]c2c(=O)[nH]1` it is > 4 mM (inactive); for `Fc1cccc(Cl)c1CN1CCCNCC1` it is > 4 mM (inactive).
The figure for `CC(=O)NC(=S)Nc1ccc(C(C)=O)cc1` is > 4 mM (inactive); for `NC1C2CC3CC1CC(O)(C3)C2` (configuration not stated) it is > 4 mM (inactive); for `CC(C)NC(=O)c1cc(=O)n(C)c(=O)n1C` it is > 4 mM (inactive).
Turning to `C/C=C(\C)C(=O)OC1[C@@H]2C=C3C(CC[C@]4(C)C3CC(=O)O[C@H]4c3ccoc3)C(C)(C2=O)[C@@H](C(O)C(=O)OC)C1(C)C` (some centres not stated), the Kd was > 4 mM (inactive).
The figure for `NC(=O)CC1Nc2cccc3cccc(c23)NC1=O` (configuration not stated) is > 4 mM (inactive); for `COc1ccc2ccc(=O)oc2c1CC=C(C)C` it is > 4 mM (inactive); for `C=CCc1cc(C(=O)N2CCCCC2)ccc1O` it is > 4 mM (inactive).
The value for `Cc1cc(C(=O)Nc2ccccn2)no1` was > 4 mM (inactive).
The figure for `OCC(O)Cc1ccc2c(c1)OCO2` (configuration not stated) is > 4 mM (inactive).
Turning to `CCOC(=O)c1cc(C)n(-n2cnnc2)c1C`, the Kd is > 4 mM (inactive).
The value for `c1ccc(CCNc2ncnc3nc[nH]c23)cc1` was > 4 mM (inactive); that for `CC1CN(Cc2ccccn2)CCC1=O` (configuration not stated) was > 4 mM (inactive); that for `Cc1sc2nc(NCCO)[nH]c(=O)c2c1C` was > 4 mM (inactive).
With `CC(=O)n1nc(-c2cccnc2)nc1N`, the Kd was > 4 mM (inactive).
The figure for `Cc1nc(N2CCOCC2)[nH]c(=O)c1C` is > 4 mM (inactive); for `Oc1ccccc1N=Cc1cccnc1` it is > 4 mM (inactive).
The figure for `CC1(C)Cc2c(C#N)c(N)n(-c3ccccc3)c(=O)c2CO1` is > 4 mM (inactive).

The values are drawn from PubChem BioAssay AID1033 (Sanford-Burnham Center for Chemical Genomics, 2008).
